Test results taken from US20250289789A1, “REVERSIBLE LYSINE COVALENT MODIFIERS OF CDK2 AND USES THEREOF” (Terremoto Biosciences, Inc., priority 2023, published 2025).

Columns and labels:
[1] = target: T1, CDK1-NanoLuc fusion with CCNB1 in 293T or 293 cells (Homo sapiens, UniProt P06493); assay: NanoBRET Target Engagement (TE) Intracellular Kinase Assay, CDK1/CCNB1; assay type: cell-based; settings: NanoBRET TE intracellular kinase assay, 2-hour incubation, read-out: NanoBRET-CDK1/B1 IC50
T1 construct: host or cells: 293T (ATCC CRL-3216) or 293 (ATCC CRL-1573)
Summary of the method: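 IC50 derived by four-parameter logistic fit of DMSO-normalized acceptor/donor (610/450 nm) BRET ratio. Compound and Tracer K-10 were applied together for 2 h at 37° C to 293 or 293T cells transfected 24 h earlier with CDK1-NanoLuc fusion and cyclin B1.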

[2] = target: T2, CDK2-NanoLuc fusion with CCNE1 in 293T or 293 cells (Homo sapiens, UniProt P24941); assay: NanoBRET Target Engagement (TE) Intracellular Kinase Assay, CDK2/CCNE1; assay type: cell-based; settings: NanoBRET TE intracellular kinase assay, 2-hour incubation, read-out: NanoBRET-CDK2/E1 IC50
T2 construct: host or cells: 293T (ATCC CRL-3216) or 293 (ATCC CRL-1573)

[3] = target: T3, CDK4-NanoLuc fusion with CCND1 in 293T or 293 cells (Homo sapiens, UniProt P11802); assay: NanoBRET Target Engagement (TE) Intracellular Kinase Assay, CDK4/CCND1; assay type: cell-based; settings: NanoBRET TE intracellular kinase assay, 2-hour incubation, read-out: NanoBRET-CDK4/D1 IC50
T3 construct: host or cells: 293T (ATCC CRL-3216) or 293 (ATCC CRL-1573)

[4] = tested on: Phospho-Rb Ser807/811 in OVCAR3 cells; assay: OVCAR3 Phospho-Rb Ser807/811 HTRF assay; assay type: cell-based; settings: Homo sapiens, OVCAR-3, 1 h, OVCAR3 cells, Phospho-Rb Ser807/811 HTRF, 1 hour incubation; read-out: pRb-OVCAR3 IC50
Description: Cells were trypsinized and resuspended in 1 mM hydroxyurea (Sigma; H8627), 90% RPMI and 10% fetal bovine serum. […] Dose response curve normalized to DMSO control was plotted using four-parameter logistic model for IC50 calculation.

pCDK2-CCNE1 proteins = pCDK2-CCNE1 proteins (Homo sapiens, UniProt P24941); assay: Identification of covalent binding by intact mass spectrometry, with and without competitor PF-06873600; settings: for Covalent complex formation with CDK2 protein (intact mass spectra after sodium borohydride reduction): pCDK2-CCNE1 1 μM, compound 1.5 μM, 1 hour at room temperature or 37° C., no competitor
Description: pCDK2-CCNE1 proteins (1 μM) were treated with a compound (1.5 μM) from Table 4 for 1 hour at room temperature or 37° C., with and without competitor molecule PF-06873600 (20 μM final concentration) as a specificity control. As used herein, the competitor molecule is
As used herein, the competitor molecule is 6-(difluoromethyl)-8-((1R,2R)-2-hydroxy-2-methylcyclopentyl)-2-((1-(methylsulfonyl)piperidin-4-yl)amino)pyrido[2,3-d]pyrimidin-7(8H)-one (PF-06873600). Reversible imines were captured by reductive amination with the addition of 5 mM sodium borohydride at room temperature for 5 min. Reduction reactions were quenched by diluting the sample in equal volume of 1% trifluoroacetic acid (v/v) in acetonitrile, then analyzed by LC-MS. Deconvoluted monoisotopic intensities of unmodified and compound-modified mass peaks were compared.
FIGS. 1A to 1P provide intact mass spectra for pCDK2-CCNE1 proteins after incubation with compounds of the present disclosure and subsequent sodium borohydride reduction. […] Further, FIGS. 1A to 1P each provide intact mass spectra following the incubation of pCDK2-CCNE1 proteins with a compound of the present disclosure both in the absence of a competitor molecule (i.e., PF-06873600, a molecule known to bind to and inhibit the function of CDK2); and in the presence of a significant stoichiometric excess of a competitor molecule PF-06873600.
FIGS. 2A to 2N provide intact mass spectra for pCDK2-CCNE1 proteins after incubation with compounds of the present disclosure and subsequent sodium borohydride reduction.

T3 sequence (P11802 whole entry, the tested form may be a part): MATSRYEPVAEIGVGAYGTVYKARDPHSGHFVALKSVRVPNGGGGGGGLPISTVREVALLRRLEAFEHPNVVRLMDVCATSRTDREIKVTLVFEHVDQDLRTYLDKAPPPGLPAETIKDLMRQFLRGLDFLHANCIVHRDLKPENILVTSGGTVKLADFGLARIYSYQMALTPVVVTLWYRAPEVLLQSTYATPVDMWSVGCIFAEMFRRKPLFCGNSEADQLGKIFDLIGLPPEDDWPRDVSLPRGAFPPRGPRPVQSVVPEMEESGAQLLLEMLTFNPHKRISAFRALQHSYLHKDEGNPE
T3 sequence (P24385 whole entry partner, the tested form may be a part): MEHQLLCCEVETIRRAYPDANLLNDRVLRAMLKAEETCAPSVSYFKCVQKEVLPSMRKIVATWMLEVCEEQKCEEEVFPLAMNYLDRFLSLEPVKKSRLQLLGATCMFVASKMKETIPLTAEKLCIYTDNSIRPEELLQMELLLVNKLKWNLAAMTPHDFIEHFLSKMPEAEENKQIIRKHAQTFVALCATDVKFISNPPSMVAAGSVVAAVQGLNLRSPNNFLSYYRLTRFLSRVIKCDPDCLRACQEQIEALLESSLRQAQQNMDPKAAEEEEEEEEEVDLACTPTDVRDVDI
T1 sequence (P06493 whole entry, the tested form may be a part): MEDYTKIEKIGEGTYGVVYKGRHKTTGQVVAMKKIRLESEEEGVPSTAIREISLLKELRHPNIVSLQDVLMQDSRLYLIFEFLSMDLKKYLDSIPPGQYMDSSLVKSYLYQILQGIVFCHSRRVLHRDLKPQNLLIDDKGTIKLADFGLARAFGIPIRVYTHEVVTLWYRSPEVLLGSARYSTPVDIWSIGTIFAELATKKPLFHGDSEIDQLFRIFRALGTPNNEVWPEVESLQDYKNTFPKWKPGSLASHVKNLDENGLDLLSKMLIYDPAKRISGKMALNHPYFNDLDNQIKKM
T1 sequence (P14635 whole entry partner, the tested form may be a part): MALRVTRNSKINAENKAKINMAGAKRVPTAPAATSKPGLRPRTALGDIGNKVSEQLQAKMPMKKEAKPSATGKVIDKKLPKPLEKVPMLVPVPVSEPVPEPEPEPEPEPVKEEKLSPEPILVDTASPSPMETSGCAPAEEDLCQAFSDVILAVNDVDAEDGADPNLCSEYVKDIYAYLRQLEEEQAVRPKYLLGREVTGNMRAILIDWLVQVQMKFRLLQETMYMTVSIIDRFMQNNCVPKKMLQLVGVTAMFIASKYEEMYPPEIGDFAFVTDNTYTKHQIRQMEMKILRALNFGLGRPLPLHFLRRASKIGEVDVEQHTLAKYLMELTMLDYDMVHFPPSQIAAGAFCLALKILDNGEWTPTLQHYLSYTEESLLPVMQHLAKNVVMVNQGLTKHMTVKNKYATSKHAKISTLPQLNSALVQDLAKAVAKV

IC50 [1] | IC50 [2] | IC50 [3] | IC50 [4] | Covalent complex formation with CDK2 protein (intact mass spectra after sodium borohydride reduction) (pCDK2-CCNE1 proteins) | Observed mass value of the covalent complex between compound and CDK2 protein (pCDK2-CCNE1 proteins; intact mass spectrometry after borohydride reduction, unmodified CDK2 34096-34097 Da) | SMILES
383 nM | 21.7 nM | 543 nM | 2430 nM | resulted in covalent complex formation | – | C#Cc1cccc(-c2cc(C(=O)Nc3cc([C@H]4CC[C@@H](OC(=O)NC(C)C)C4)[nH]n3)n(C)n2)c1C=O [Compound 52, (1R,3S)-3-(3-(3-(3-ethynyl-2-formylphenyl)-1-methyl-1H-pyrazole-5-carboxamido)-1H-pyrazol-5-yl)cyclopentyl isopropylcarbamate]
692 nM | 20.6 nM | 4170 nM | 2410 nM | resulted in covalent complex formation | – | CC(=O)Nc1cccc(OCC(=O)Nc2cc([C@H]3CC[C@@H](OC(=O)NC(C)C)C3)[nH]n2)c1C=O [Compound 46, (1R,3S)-3-{5-[2-(3-acetamido-2-formylphenoxy)acetamido]-2H-pyrazol-3-yl}cyclopentyl N-isopropylcarbamate]
5.66 nM | 1.43 nM | 3790 nM | 31.7 nM | resulted in covalent complex formation | 34554 Da | COc1cc(OC)c(C=O)c(OCC(=O)Nc2cc([C@H]3CC[C@@H](OC(=O)NC(C)C)C3)[nH]n2)c1 [Compound 103, (1R,3S)-3-{5-[2-(2-formyl-3,5-dimethoxyphenoxy)acetamido]-2H-pyrazol-3-yl}cyclopentyl N-isopropylcarbamate]
2.8 nM | 2.28 nM | 778 nM | 21.4 nM | – | – | COc1cc(O)c(C=O)c(OCC(=O)Nc2cc([C@H]3CC[C@@H](OC(=O)NC4(C)CCC4)C3)[nH]n2)c1 [Compound 254]
21.9 nM | 3.06 nM | > 9580 nM | 110 nM | – | – | Cc1cc(O)c(C=O)c(OCC(=O)Nc2cc([C@H]3CC[C@@H](OC(=O)NC(C)C)C3)[nH]n2)c1 [Compound 57, (1R,3S)-3-(3-(2-(2-formyl-3-hydroxy-5-methylphenoxy)acetamido)-1H-pyrazol-5-yl)cyclopentyl isopropylcarbamate]
703 nM | 10.5 nM | > 10000 nM | 2490 nM | – | – | CC(C)NC(=O)O[C@@H]1CC[C@H](c2cc(NC(=O)COc3cc(-n4cccn4)cc(O)c3C=O)n[nH]2)C1 [Compound 257]
169 nM | 8.52 nM | 2280 nM | 391 nM | – | – | CC(C)NC(=O)O[C@@H]1CC[C@H](c2cc(NC(=O)C3CCN(c4cccc(O)c4C=O)C3)n[nH]2)C1 (stereo partly drawn) [Compound 93, (1R,3S)-3-{5-[1-(2-formyl-3-hydroxyphenyl)pyrrolidine-3-amido]-2H-pyrazol-3-yl}cyclopentyl N-isopropylcarbamate]
12.8 nM | 7.32 nM | 8710 nM | 120 nM | – | – | CC(C)NC(=O)O[C@@H]1CC[C@H](c2cc(NC(=O)COc3cc(OC(F)F)cc(O)c3C=O)n[nH]2)C1 [Compound 100, (1R,3S)-3-(5-{2-[5-(difluoromethoxy)-2-formyl-3-hydroxyphenoxy]acetamido}-2H-pyrazol-3-yl)cyclopentyl N-isopropylcarbamate]
155 nM | 56.8 nM | > 3460 nM | 375 nM | – | – | COc1cc(OC)c2c(c1C=O)C[C@H](C(=O)Nc1cc([C@H]3C[C@@H](OC(=O)NC(C)C)C3)[nH]n1)C2 [Compound 214]
436 nM | 8.38 nM | > 10000 nM | 477 nM | – | – | COCc1cc(O)c(C=O)c(OCC(=O)Nc2cc([C@H]3CC[C@@H](OC(=O)NC(C)C)C3)[nH]n2)c1 [Compound 72, (1R,3S)-3-(3-(2-(2-formyl-3-hydroxy-5-(methoxymethyl)phenoxy)acetamido)-1H-pyrazol-5-yl)cyclopentyl isopropylcarbamate]
21.7 nM | 9.39 nM | 3660 nM | 361 nM | – | – | Cc1nc(-c2cccc(O)c2C=O)sc1C(=O)Nc1cc([C@H]2CC[C@@H](OC(=O)NC(C)C)C2)[nH]n1 [Compound 53, (1R,3S)-3-(3-(2-(2-formyl-3-hydroxyphenyl)-4-methylthiazole-5-carboxamido)-1H-pyrazol-5-yl)cyclopentyl isopropylcarbamate]
18.4 nM | 2.65 nM | 5100 nM | 28.7 nM | – | – | C#CCNC(=O)O[C@@H]1CC[C@H](c2cc(NC(=O)COc3cc(OC)cc(O)c3C=O)n[nH]2)C1 [Compound 253]

Second part, the compound before the results:

SMILES | IC50 [1] | IC50 [2] | IC50 [3] | IC50 [4] | Covalent complex formation with CDK2 protein (intact mass spectra after sodium borohydride reduction) (pCDK2-CCNE1 proteins) | Observed mass value of the covalent complex between compound and CDK2 protein (pCDK2-CCNE1 proteins; intact mass spectrometry after borohydride reduction, unmodified CDK2 34096-34097 Da)
CC(C)NC(=O)O[C@@H]1CC[C@H](c2cc(NC(=O)c3cc(-c4cccc(C=O)c4O)nn3C)n[nH]2)C1 [Compound 18, (1R,3S)-3-{5-[5-(3-formyl-2-hydroxyphenyl)-2-methylpyrazole-3-amido]-2H-pyrazol-3-yl}cyclopentyl N-isopropylcarbamate trifluoroacetic acid] | 703 nM | 11.4 nM | 1610 nM | 4640 nM | resulted in covalent complex formation | –
CC1(NC(=O)O[C@@H]2CC[C@H](c3cc(NC(=O)CCc4cccc(O)c4C=O)n[nH]3)C2)CC1 [Compound 23, (1R,3S)-3-(3-(3-(2-formyl-3-hydroxyphenyl)propanamido)-1H-pyrazol-5-yl)cyclopentyl (1-methylcyclopropyl)carbamate trifluoroacetic acid] | 125 nM | 10.9 nM | 969 nM | – | resulted in covalent complex formation | –
COCCOCCNC(=O)O[C@@H]1CC[C@H](c2cc(NC(=O)COc3cc(OC)cc(O)c3C=O)n[nH]2)C1 [Compound 210] | 26.3 nM | 6.9 nM | > 10000 nM | 68.5 nM | – | –
CC(C)c1ccc(O[C@@H]2CC[C@H](c3cc(NC(=O)CCc4cccc(O)c4C=O)n[nH]3)C2)nn1 [Compound 14, 3-(2-formyl-3-hydroxyphenyl)-N-{5-[(1S,3R)-3-[(6-isopropylpyridazin-3-yl)oxy]cyclopentyl]-1H-pyrazol-3-yl}propanamide] | 1690 nM | 138 nM | 779 nM | – | resulted in covalent complex formation | –
CCCN(C)C(=O)O[C@@H]1CC[C@H](c2cc(NC(=O)COc3cc(OC)cc(O)c3C=O)n[nH]2)C1 [Compound 225] | 5.09 nM | 2.49 nM | 2600 nM | 18.7 nM | – | –
CC(C)NC(=O)O[C@@H]1CC[C@H](c2cc(NC(=O)c3cc(CCc4cccc(O)c4C=O)nn3C)n[nH]2)C1 [Compound 30, (1R,3S)-3-(5-{5-[2-(2-formyl-3-hydroxyphenyl)ethyl]-2-methylpyrazole-3-amido}-2H-pyrazol-3-yl)cyclopentyl N-isopropylcarbamate] | 491 nM | 17.8 nM | 3160 nM | 2740 nM | – | –
COc1cc(O)c(C=O)c(OCC(=O)Nc2cc([C@H]3CC[C@@H](OC(=O)N4[C@@H](C)COC[C@@H]4C)C3)[nH]n2)c1 [Compound 212] | 6.31 nM | 2.98 nM | 1070 nM | 21.8 nM | – | –
COc1cc(O)c(C=O)c(OCC(=O)Nc2cc([C@H]3CC[C@@H](OC(=O)N4CC[C@H](OC)C4)C3)[nH]n2)c1 [Compound 242] | 13.1 nM | 5.05 nM | > 10000 nM | 66.9 nM | – | –
